Data: article PMC6953423 (Journal of medicinal chemistry, 2019)

What was measured:
rats = conditions: cited from earlier work; for seeking drugs of abuse (cocaine or methamphetamine) after a period of extinction: rats pretreated
CB1 [1] = molecular target: T1, CB1 (Homo sapiens, UniProt P21554); assay: CB1 calcium mobilization assay; format: cell-based; conditions: IC50 relative to 2
[2] = cited from earlier work
male Sprague-Dawley rats = assay: Drug-induced reinstatement of extinguished cocaine-seeking behavior; format: in vivo, rat; conditions: 10 mg/kg i.p. pretreatment, cocaine prime 10 mg/kg i.p., p > 0.05
CB1 [3] = molecular target: T1, CB1; conditions: absence of CP55,940; up to 10 μM
P-gp (MDR1) = assay: in vitro; conditions: dog, MDCK-MDR1, pH 7.4
Kinetic solubility = format: physicochemical; conditions: phosphate buffer, mean ± SD

T1 sequence (P21554 whole entry): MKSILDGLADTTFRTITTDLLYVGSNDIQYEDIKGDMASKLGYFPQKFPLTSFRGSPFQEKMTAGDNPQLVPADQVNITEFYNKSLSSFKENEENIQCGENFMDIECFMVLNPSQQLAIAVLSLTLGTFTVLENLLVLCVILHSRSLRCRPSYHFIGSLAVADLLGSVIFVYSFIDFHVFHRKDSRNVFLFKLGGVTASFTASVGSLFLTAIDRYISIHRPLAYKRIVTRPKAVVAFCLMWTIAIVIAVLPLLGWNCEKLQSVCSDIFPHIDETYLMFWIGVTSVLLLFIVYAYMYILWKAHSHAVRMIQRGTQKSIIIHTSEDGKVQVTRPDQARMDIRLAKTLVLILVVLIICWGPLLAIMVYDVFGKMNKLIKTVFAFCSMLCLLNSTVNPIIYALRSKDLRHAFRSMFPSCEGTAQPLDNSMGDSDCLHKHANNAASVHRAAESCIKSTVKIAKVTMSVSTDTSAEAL

SMILES: CCc1c(C(=O)NCCc2ccc(N3CCCCC3)cc2)[nH]c2ccc(Cl)cc12 [Compound 1]
- seeking drugs of abuse (cocaine or methamphetamine) after a period of extinction (rats): less likely to seek drugs of abuse

SMILES: O=C(Nc1ccc(Cl)cc1)Nc1cccc(-c2ccc(F)cc2)c1 [Compound 4]
- prime-induced reinstatement of cocaine seeking (rats): attenuated prime-induced restatement of cocaine seeking
- seeking drugs of abuse (cocaine or methamphetamine) after a period of extinction (rats): less likely to seek drugs of abuse

SMILES: O=C(Nc1ccc(Cl)cc1)Nc1cc(-c2ccccc2)ccn1 [Compound 7, 1‐(4‐Chlorophenyl)‐3‐(4‐phenylpyridin‐2‐yl)urea]
- fold less potent than 2 in calcium assay (CB1 [1]): 4.7 fold

SMILES: N#Cc1ccc(NC(=O)Nc2cccc(-c3cccc(N4CCCC4)n3)c2)cc1 [Compound 3]
- effect on THC in drug discrimination [2]: reduced THC’s potency

SMILES: O=C(Nc1ccc(Cl)cc1)Nc1ccc(-c2ccccc2)s1 [Compound 11, 1‐(4‐Chlorophenyl)‐3‐(5‐phenylthiophen‐2‐yl)urea]
- effect on drug-induced cocaine-seeking behavior (male Sprague-Dawley rats): failed to significantly reduce
- inverse agonism (in words) (CB1 [3]): very little inverse agonism
- efflux ratio at 10 μM (P-gp (MDR1)): < 2.5

SMILES: O=C(Nc1ccc(Cl)cc1)Nc1cncc(-c2ccccc2)c1 [Compound 9, 1‐(4‐Chlorophenyl)‐3‐(5‐phenylpyridin‐3‐yl)urea]
- fold less potent than 2 in calcium assay (CB1 [1]): 8.8 fold

SMILES: O=C(Nc1ccc(Cl)cc1)Nc1ccnc(-c2ccccc2)c1 [Compound 10, 1‐(4‐Chlorophenyl)‐3‐(2‐phenylpyridin‐4‐yl)urea]
- fold less potent than 2 in calcium assay (CB1 [1]): 7.1 fold

SMILES: O=C(Nc1ccc(Cl)cc1)Nc1cccc(-c2cccc(N3CCCC3)n2)c1 [Compound 2, 1-(4-chlorophenyl)-3-{3-[6-(pyrrolidin-1-yl)pyridin-2-yl]phenyl}urea]
- solubility at 2 h (Kinetic solubility): < 1 µM
- seeking drugs of abuse (cocaine or methamphetamine) after a period of extinction (rats): less likely to seek drugs of abuse
